The target of experiment [1] is T1, human V1a receptor (Homo sapiens, UniProt P37288).
T1 construct: host or cells: CHO cells
The experiment can be described thus: Human vasopressin V1a receptor binding assay (3H-AVP competition, hV1a cell line). As for the experimental part:
Human vasopression V1a receptor binding assay. A cell line expressing the human V1a receptor in CHO cells (henceforth referred to as the hV1a cell line) was obtained from Dr. Michael Brownstein, NIMH, Bethesda, Md., USA. The hV1a cDNA sequence is described by Thibonnier et al., Journal of Biological Chemistry, 269, 3304-3310 (1994), and the expression method was the same as described by Morel et al. (1992). The hV1a cell line was grown in alpha-MEM with 10% fetal bovine serum and 250 ug/ml G418 (Gibco, Grand Island, N.Y., USA). For competitive binding assay, hV1a cells were plated into 6-well culture plate at 1:10 dilution from a confluency flask, and maintained in culture for at least two days. Culture medium was then removed, cells were washed with 2 ml binding buffer (25 mM Hepes, 0.25% BSA, 1×DMEM, PH=7.0). To each well, 990 μl binding buffer containing 1 nM 3H-AVP was added, and followed by 10 μl series diluted Example compounds dissolved in DMSO. […] 100 nM cold AVP (Sigma) was used to assess non-specific binding. Cells were incubated for 45 minutes at 37° C., assay mixture was removed and each well was washed three times with PBS (pH=7.4). 1 ml 2% SDS was added per well and plates were let sit for 30 minutes. The whole content in a well was transferred to a scintillation vial. Each well was rinsed with 0.5 ml PBS which was then added to the corresponding vial. Scintillation fluid (Ecoscint, National Diagnostics, Atlanta, Ga.) was then added at 3 ml per vial. Samples were counted in a liquid scintillation counter (Beckman LS3801). IC50 values were calculated by Prism Curve fitting software.
All of the alkanedioic esters and amides exemplified in the foregoing examples dissolved in DMSO were tested in this assay. Binding curves were generated according to methods described by Thibonnier et al. (1994). [^3H]-AVP was added to the hV1a cell cultures followed by 10-fold dilutions of each test compound.

Experiment [2] concerns the target T1, human V1a receptor. The experiment can be described thus: Inhibition of phosphatidylinositol turnover (V1a). It is filed as cell-based. The text has this:
Inhibition of phosphatidylinositol turnover (V1a). The physiological effects of vasopressin are mediated through specific G-protein coupled receptors. The vasopressin V1a receptor is coupled to the Gq/G11 family of G proteins and mediates phosphatidylinositol turnover. The agonist or antagonist character of the compounds of the invention may be determined by their ability to inhibit vasopressin-mediated turnover of phosphatidylinositol by the procedure described in the following paragraphs.
Cell culture and labeling of cells. Three days prior to the assay, near-confluent cultures of hV1a or hV1b cells were dissociated and seeded in 6-well tissue culture plates, about 100 wells being seeded from each 75 cm^2 flask (equivalent to 12:1 split ratio). Each well contained 1 mL of growth medium with 2 μCi of [^3H]myo-inositol (American Radiolabeled Chemicals, St. Louis, Mo., USA).
Incubations (V1a and V1b). All assays were in triplicate except for basal and 10 nM AVP (both n=6). AVP ((arginine vasopressin), Peninsula Labs, Belmont, Calif., USA (#8103)) was dissolved in 0.1N acetic acid. Test agents were dissolved in DMSO and diluted in DMSO to 200 times the final test concentration. […] The order of incubations was randomized. Incubations were initiated by removing the prelabeling medium, washing the monolayer once with 1 mL of 0.9% NaCl, and transferring the contents of the assay tubes to corresponding wells. The plates were incubated for 1 hour at 37° C. Incubations were terminated by removing the incubation medium and adding 500 μL of ice cold 5% (w/v) trichloroacetic acid and allowing the wells to stand for 15 min.
Measurement of [^3H]inositol phosphates (V1a and V1b). BioRad Poly-Prep Econo-Columns were packed with 0.3 mL of AG 1×−8 100-200 formate form resin. Resin was mixed 1:1 with water and 0.6 mL added to each column. Columns were then washed with 10 mL water. Scintillation vials (20 mL) were placed under each column. For each well, the contents were transferred to a minicolumn, after which the well was washed with 0.5 mL distilled water, which was also added to the minicolumn. The columns were then washed twice with 5 mL of 5 mM myo-inositol to elute free inositol. Aliquots (1 mL) were transferred to 20 mL scintillation vials and 10 mL of Beckman Ready Protein Plus added. After the myo-inositol wash was complete, empty scintillation vials were placed under the columns, and [^3H]inositol phosphates were eluted with three additions of 1 mL 0.5 M ammonium formate containing 0.1 N formic acid. Elution conditions were optimized to recover inositol mono-, bis-, and trisphosphates, without eluting the more metabolically inert tetrakis-, pentakis-, and hexakis-phosphates. To each sample was added 10 mL of a high salt capacity scintillation fluid such as Tru-Count High Salt Capacity or Packard Hionic-Fluor. Inositol lipids were measured by adding 1 mL of 2% sodium dodecyl sulfate (SDS) to each well, allowing the wells to stand for at least 30 min., and transferring the solution to 20 mL scintillation vials, to which 10 mL Beckman Ready Protein Plus scintillation fluid was then added. Samples were counted in a Beckman LS 3801 liquid scintillation counter for 10 min. Total inositol incorporation for each well was calculated as the sum of free inositol, inositol phosphates, and inositol lipids.
Data analysis (V1a and V1b): concentration-inhibition experiments. Concentration-response curves for AVP and concentration-inhibition curves for test agents versus 10 nM AVP were analyzed by nonlinear least-squares curve-fitting to a 4-parameter logistic function. Parameters for basal and maximal inositol phosphates, EC50 or IC50, and Hill coefficient were varied to achieve the best fit. The curve-fitting was weighted under the assumption that the standard deviation was proportional to dpm of radioactivity. Full concentration-response curves for AVP were run in each experiment. […]

Consider one compound from patent US9376424B2, “Methods for treating post traumatic stress disorder” (AZEVAN PHARMACEUTICALS, INC., priority 2010, dated 2016).

T1 sequence (P37288 whole entry): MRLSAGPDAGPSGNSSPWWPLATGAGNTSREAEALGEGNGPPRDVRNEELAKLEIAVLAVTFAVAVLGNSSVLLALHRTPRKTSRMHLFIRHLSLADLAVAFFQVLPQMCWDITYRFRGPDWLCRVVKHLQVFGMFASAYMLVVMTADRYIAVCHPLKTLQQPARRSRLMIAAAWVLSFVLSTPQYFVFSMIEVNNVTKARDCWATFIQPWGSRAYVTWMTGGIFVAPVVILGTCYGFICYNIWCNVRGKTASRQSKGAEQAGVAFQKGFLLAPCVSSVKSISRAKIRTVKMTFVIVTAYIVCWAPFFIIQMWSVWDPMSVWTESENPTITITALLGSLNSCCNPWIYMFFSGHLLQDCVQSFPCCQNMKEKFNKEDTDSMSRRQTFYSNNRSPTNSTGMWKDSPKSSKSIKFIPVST

As to `CN(Cc1cccc(C(F)(F)F)c1)C(=O)[C@@H](CC(=O)N1CCC(N2CCCCC2)CC1)N1C(=O)[C@@H](N2C(=O)OC[C@@H]2c2ccccc2)[C@H]1C=Cc1ccccc1` [Example 225, 2(R)-[[4-(Piperidinyl)piperidinyl]carbonylmethyl]-2-[3(S)-(4(S)-phenyloxazolidin-2-on-3-yl)-4(R)-(2-styryl)azetidin-2-on-1-yl]acetic acid N-methyl-N-(3-trifluoromethylbenzyl)amide], the IC50 in experiment [1] (CHO cells expressing human V1a, 1 nM 3H-AVP, read-out: V1a Binding Affinity IC50) was 1.08 nM; in experiment [1] (read-out: IC50, dose-dependent competitive binding curve, hV1a cell line, [3H]-AVP) it was 1.86 to 2.13 nM; in experiment [2] (versus 10 nM AVP, hV1a cells, read-out: IC50, suppression of the action of AVP (inositol phosphates)) it was 2.68 nM. The Ki in experiment [1] (CHO cells expressing human V1a, 1 nM 3H-AVP, read-out: V1a Ki) is 0.66 nM; in experiment [1] (read-out: Ki, dose-dependent competitive binding curve, hV1a cell line, [3H]-AVP), 1.14 to 1.3 nM; in experiment [1] (selectivity table, read-out: inhibition data (Ki, nM), Receptor V1a) it was 0.66 nM; in experiment [2] (Cheng-Prusoff from IC50, hV1a cells, read-out: Ki, suppression of the action of AVP (inositol phosphates)), 0.05 nM.
